One data set relates to AT1 receptors. As to conditions: background statement; cited from earlier work.
Data set [1] in a line: Solubility in crystallization solvent (water/methanol/isopropyl acetate). To be noted: 1:2:2 water/methanol/isopropyl acetate. Type of data set: physicochemical. The method, then: Step K: Preparation of 3-[2'-(N-Benzyl)sulfonamidobiphenyl-4-yl]methyl-5,7-dimethyl-2-ethyl-3H-imidazo[4,5-b]pyridine potassium salt--(Forms I, Id and W) [drawing 13] In a 72-L four-necked flask fitted with an overhead stirrer and a reflux condenser, 3-[2'-(N-benzyl)sulfonamidobiphenyl-4-yl]methyl-5,7-dimethyl-2-ethyl-3H-imidazo[4,5-b]pyridine 1 (5.04 kg, 9.6 mol), methanol (14.5 L) and water (2.5 L) are mixed. The slurry is warmed to 62° C. under a nitrogen atmosphere and 1.94M potassium hydroxide (4.96 L, 9.61 mol) is added to the slurry at 62° C. over 1.5 hours to provide a homogeneous solution. Isopropyl acetate (13.83 L) is then added at 65° C. and the mixture is warmed to 70° C. The homogeneous solution is filtered at 70° C. to remove any particulates that are present. The filtrate is diluted with isopropyl acetate (1.3 L), methanol (0.6 L) and water (0.1 L). […] The homogeneous mixture is cooled to 52° C. over 2 hours, whereupon potassium salt seed of form "I" (140 g) is added. This mixture becomes cloudy after 30 min. The mixture is aged for 10 hours at 52° C. The white slurry is cooled to 48° C. over 1 hour and stirred for 3 hours. […] The K-salt is considered dry when <0.05% methanol and isopropyl acetate are detected by ^1 H NMR. […] The water content can be monitored by TG analysis. […] The crystal form is monitored by X-ray analysis. […]

Another data set deals with AT2 binding sites. To be noted: background statement; cited from earlier work.

Structures can show the parent of a compound that is named as a salt.

For the compound `CCc1nc2c(C)cc(C)nc2n1Cc1ccc(-c2ccccc2S(=O)(=O)NC(=O)c2ccccc2)cc1` [3-[2'-(N-benzoyl)sulfonamidobiphenyl-4-yl]methyl-5,7-dimethyl-2-ethyl-3H-imidazo[4,5-b]pyridine potassium salt], the “affinity for AT1 receptors” value in the data set with AT1 receptors was “high affinity”. The “solubility of the potassium salt at 0° C.” value in data set [1] (0° C.) came out at 15 mg/mL. The “solubility of the potassium salt at 60° C.” value in data set [1] (60° C.) was found to be 174 mg/mL. The “affinity for AT2 binding sites” value in the data set with AT2 binding sites is given as “low affinity”.

Source of the values: patent US5693812A, “Polymorphic forms of an angiotensin II antagonist” (priority 1996, dated 1997).
